Here are results for one molecule from patent publication US20190054194A1, “System and Method For Evaluation of Subjects Using Magnetic Resonance Imaging and Oxygen-17” (Case Western Reserve University, priority 2017, published 2019).

The nature of this data set: dynamic golden-angle 17O-MRI of H2^17O uptake and washout in brain after intravenous bolus injection (control and glioblastoma mice). It is filed as in vivo. The text has this:
In one configuration, tumor and brain may be differentiated with the present methods, such as to assess the presence of a glioblastoma. […] For example, the method may allow for differentiation between subjects with a moderate tumor volume (<30%, GBM-M) and those with a large tumor volume (>30%, GBM-L). Once image reconstruction has been completed, ^17O images may be coregistered with the T2-weighted ^1H images. Tumor areas may show higher signal intensity in T2-weighted ^1H images due to having a longer T2 than normal brain tissue. Appropriate regions of interest (ROIs) that encompass the tumor and normal brain tissue may be drawn manually from T2-weighted ^1H images, or automatic segmentation routines may be used to define the ROIs. Total tumor and brain volumes may be calculated by adding the tumor and brain areas in all of the image slices. The percentage of tumor volume may then be calculated as the tumor volume divided by total brain volume.
^17O signal may be normalized by the corresponding natural abundance ^17O signal acquired before H2^17O injection or administration. Peak H2^17O uptake may be identified as the maximal signal intensity following H2^17O administration. A normalized time course of the ^17O signal from peak uptake to the end of the measurement may be fit to a monoexponential function in a pixel-wise fashion to generate the maps of peak and steady-state H2^17O uptake, as well as its washout rate. Mean values for each ROI may be calculated for each map. In tissue with no obvious washout phase or even continued accumulation of H2^17O after the injection, washout rate may be set to zero, while peak and steady-state H2^17O uptake may be calculated as the normalized ^17O signals immediately after H2^17O injection and at the end of measurement, respectively.

Setting [1] is: GBM-L mice (large tumor volume >30%).

As for `[17OH2]` [H2^17O, ^17O-labeled water], under setting [1], the “H2^17O uptake in normal brain tissue” value is “significantly reduced H2^17O uptake”; the “H2^17O washout in normal brain tissue” value is listed as “prolonged washout”; the “H2^17O washout in tumors” value was “no obvious washout phase, or even continuous accumulation of H2^17O after injection”. For the same molecule, the “H2^17O uptake in tumors” value (GBM-M mice (moderate tumor volume <30%)) is recorded as “reduced H2^17O uptake”. For the same molecule, the “H2^17O uptake and washout (17O signal kinetics) in brain” value (control mice, after H2^17O injection) was “rapid uptake and washout”.
